Experiments:
[1] = Permeability across human Caco2 cells; format: ADME, cell-based; conditions: Caco-2, read-out: permeability
Integrin alpha2/beta1 = Integrin alpha2/beta1 (Homo sapiens, UniProt P05556+P17301); experiment: Antagonist activity at recombinant integrin alpha2 beta1 receptor (unknown origin) assessed as inhibition of interaction with biotinylated collagen type-1 after 3 hrs by solid phase ELISA-type assay; format: protein-complex assay
[2] = Drug metabolism in Swiss CD-1 mouse liver microsomes at 5 uM after 20 mins; format: ADME, Microsome; conditions: read-out: Drug metabolism
Cytochrome P450 3A4 [3] = molecular target: T1, Cytochrome P450 3A4 (Homo sapiens, UniProt P08684); experiment: Inhibition of CYP3A4 (unknown origin) after 10 to 30 mins; format: ADME
[4] = Lipophilicity, log D of the compound at pH 7.4 at 25 degC; format: physicochemical; conditions: buffer
Integrin alpha-5/beta-1 = Integrin alpha-5/beta-1 (Homo sapiens, UniProt P05556+P08648); experiment: Antagonist activity at integrin alpha5beta1 receptor (unknown origin) assessed as inhibition of interaction with biotinylated collagen type-1 after 3 hrs by solid phase ELISA-type assay; format: protein-complex assay
[5] = Solubility of the compound at pH 7.4 at 25 degC; format: physicochemical; conditions: buffer
[6] = Drug excretion in Sprague-Dawley rat urine at 4.8 mg/kg, iv administered as bolus dose measured after 24 hrs by LC-MS/MS analysis; format: ADME, organism-based; set-up: dose 4.8 mg/kg, route intravenous; conditions: read-out: Drug excretion
[7] = Initial plasma concentration in Sprague-Dawley rat at 4.8 mg/kg, iv administered as bolus dose by LC-MS/MS analysis; format: ADME, organism-based; set-up: dose 4.8 mg/kg, route intravenous
Plasma [8] = experiment: Metabolic stability in mouse plasma at 100 ng/mL measured after 4 hrs; format: ADME, cell-free
[9] = Plasma concentration in Sprague-Dawley rat at 4.8 mg/kg, iv administered as bolus dose measured after 1 hr by LC-MS/MS analysis; format: ADME, organism-based; set-up: dose 4.8 mg/kg, route intravenous
[10] = Drug metabolism in human liver microsomes at 5 uM after 20 mins; format: ADME; conditions: read-out: Drug metabolism
[11] = Half life in Sprague-Dawley rat at 4.8 mg/kg, iv administered as bolus dose by LC-MS/MS analysis; format: ADME, organism-based; set-up: dose 4.8 mg/kg, route intravenous; conditions: in vivo
[12] = molecular target: Voltage-gated inwardly rectifying potassium channel KCNH2 (Homo sapiens, UniProt Q12809); experiment: Inhibition of human ERG expressed in CHO cells by patch clamp assay; format: cell-based
[13] = Volume of distribution at steady state in Sprague-Dawley rat at 4.8 mg/kg, iv administered as bolus dose by LC-MS/MS analysis; format: ADME, organism-based; set-up: dose 4.8 mg/kg, route intravenous; conditions: in vivo, read-out: Vdss
Cytochrome P450 3A4 [14] = molecular target: T1, Cytochrome P450 3A4; experiment: Induction of CYP3A4 activity (unknown origin) relative to control; format: ADME
[15] = Drug excretion in Sprague-Dawley rat bile at 5 mg/kg, iv administered as bolus dose measured after 2 hrs by LC-MS/MS analysis; format: ADME, organism-based; set-up: dose 5 mg/kg, route intravenous; conditions: read-out: Drug excretion
Cytochrome P450 1A2 = molecular target: T2, Cytochrome P450 1A2 (Homo sapiens, UniProt P05177); experiment: Induction of CYP1A2 activity (unknown origin) relative to control; format: ADME
T2 sequence (P05177 whole entry): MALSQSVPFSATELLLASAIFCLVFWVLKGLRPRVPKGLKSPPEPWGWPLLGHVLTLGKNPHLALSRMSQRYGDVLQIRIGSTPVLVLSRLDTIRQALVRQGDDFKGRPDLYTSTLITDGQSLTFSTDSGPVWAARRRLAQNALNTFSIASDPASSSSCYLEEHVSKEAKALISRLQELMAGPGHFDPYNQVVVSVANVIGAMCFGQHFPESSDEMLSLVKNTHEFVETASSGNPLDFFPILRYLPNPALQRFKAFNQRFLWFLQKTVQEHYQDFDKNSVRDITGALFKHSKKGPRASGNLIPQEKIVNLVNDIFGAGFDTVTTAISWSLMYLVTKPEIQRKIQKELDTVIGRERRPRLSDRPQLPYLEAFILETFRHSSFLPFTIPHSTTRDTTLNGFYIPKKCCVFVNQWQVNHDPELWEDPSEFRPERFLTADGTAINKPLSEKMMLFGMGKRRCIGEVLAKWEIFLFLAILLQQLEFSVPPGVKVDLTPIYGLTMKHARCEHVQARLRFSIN

[16] = molecular target: Integrin alpha1/beta1 complex (Homo sapiens, UniProt P05556+P56199); experiment: Antagonist activity at integrin alpha1beta1 receptor (unknown origin) assessed as inhibition of interaction with biotinylated collagen type-1 after 3 hrs by solid phase ELISA-type assay; format: protein-complex assay
Plasma [17] = experiment: Metabolic stability in human plasma at 100 ng/mL measured after 4 hrs; format: ADME, cell-free
Plasma [18] = experiment: Metabolic stability in rat plasma at 100 ng/mL measured after 4 hrs; format: ADME, cell-free
[19] = Drug metabolism in Sprague-Dawley rat liver microsomes at 5 uM after 20 mins; format: ADME; conditions: read-out: Drug metabolism
Cytochrome P450 1A1 = molecular target: T3, Cytochrome P450 1A1 (Homo sapiens, UniProt P04798); experiment: Induction of CYP1A1 activity (unknown origin) relative to control; format: ADME
T3 sequence (P04798 whole entry): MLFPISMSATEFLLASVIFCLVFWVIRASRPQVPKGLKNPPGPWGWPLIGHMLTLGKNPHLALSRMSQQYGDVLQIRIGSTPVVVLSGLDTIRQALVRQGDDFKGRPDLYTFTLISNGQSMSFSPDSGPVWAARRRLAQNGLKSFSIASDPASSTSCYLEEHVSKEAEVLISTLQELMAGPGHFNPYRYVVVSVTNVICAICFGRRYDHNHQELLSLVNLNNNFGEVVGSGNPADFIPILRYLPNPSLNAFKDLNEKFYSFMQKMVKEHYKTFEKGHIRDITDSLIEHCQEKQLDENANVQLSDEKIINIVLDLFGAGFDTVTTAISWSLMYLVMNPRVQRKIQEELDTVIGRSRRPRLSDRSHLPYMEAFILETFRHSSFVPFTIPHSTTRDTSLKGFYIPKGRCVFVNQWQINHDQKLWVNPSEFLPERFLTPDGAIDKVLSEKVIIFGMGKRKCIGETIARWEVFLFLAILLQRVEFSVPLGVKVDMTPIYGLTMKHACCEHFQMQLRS

Integrin alpha2/beta1, sequence (P05556 whole entry): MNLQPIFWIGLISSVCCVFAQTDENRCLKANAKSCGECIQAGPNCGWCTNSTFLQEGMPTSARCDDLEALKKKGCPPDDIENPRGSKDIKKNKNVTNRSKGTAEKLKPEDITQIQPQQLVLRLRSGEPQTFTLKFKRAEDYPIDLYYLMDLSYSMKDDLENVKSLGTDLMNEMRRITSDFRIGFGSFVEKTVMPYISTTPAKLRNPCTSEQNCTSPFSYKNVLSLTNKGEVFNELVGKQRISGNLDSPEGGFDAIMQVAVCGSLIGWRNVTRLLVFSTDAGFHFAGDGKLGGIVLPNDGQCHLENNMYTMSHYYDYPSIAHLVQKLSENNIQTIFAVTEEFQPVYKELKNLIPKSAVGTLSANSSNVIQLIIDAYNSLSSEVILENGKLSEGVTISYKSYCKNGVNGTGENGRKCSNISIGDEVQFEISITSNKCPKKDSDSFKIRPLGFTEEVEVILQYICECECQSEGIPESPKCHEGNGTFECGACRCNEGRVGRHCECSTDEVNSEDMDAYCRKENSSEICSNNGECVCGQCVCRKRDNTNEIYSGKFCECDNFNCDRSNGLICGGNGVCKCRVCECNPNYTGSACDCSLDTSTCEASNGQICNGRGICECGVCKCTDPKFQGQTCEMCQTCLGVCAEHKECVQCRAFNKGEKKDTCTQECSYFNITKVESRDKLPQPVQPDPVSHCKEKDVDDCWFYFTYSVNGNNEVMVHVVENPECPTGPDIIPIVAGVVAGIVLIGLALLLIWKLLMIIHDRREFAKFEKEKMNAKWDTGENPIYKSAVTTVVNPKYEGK
Integrin alpha2/beta1, sequence (P17301 whole entry): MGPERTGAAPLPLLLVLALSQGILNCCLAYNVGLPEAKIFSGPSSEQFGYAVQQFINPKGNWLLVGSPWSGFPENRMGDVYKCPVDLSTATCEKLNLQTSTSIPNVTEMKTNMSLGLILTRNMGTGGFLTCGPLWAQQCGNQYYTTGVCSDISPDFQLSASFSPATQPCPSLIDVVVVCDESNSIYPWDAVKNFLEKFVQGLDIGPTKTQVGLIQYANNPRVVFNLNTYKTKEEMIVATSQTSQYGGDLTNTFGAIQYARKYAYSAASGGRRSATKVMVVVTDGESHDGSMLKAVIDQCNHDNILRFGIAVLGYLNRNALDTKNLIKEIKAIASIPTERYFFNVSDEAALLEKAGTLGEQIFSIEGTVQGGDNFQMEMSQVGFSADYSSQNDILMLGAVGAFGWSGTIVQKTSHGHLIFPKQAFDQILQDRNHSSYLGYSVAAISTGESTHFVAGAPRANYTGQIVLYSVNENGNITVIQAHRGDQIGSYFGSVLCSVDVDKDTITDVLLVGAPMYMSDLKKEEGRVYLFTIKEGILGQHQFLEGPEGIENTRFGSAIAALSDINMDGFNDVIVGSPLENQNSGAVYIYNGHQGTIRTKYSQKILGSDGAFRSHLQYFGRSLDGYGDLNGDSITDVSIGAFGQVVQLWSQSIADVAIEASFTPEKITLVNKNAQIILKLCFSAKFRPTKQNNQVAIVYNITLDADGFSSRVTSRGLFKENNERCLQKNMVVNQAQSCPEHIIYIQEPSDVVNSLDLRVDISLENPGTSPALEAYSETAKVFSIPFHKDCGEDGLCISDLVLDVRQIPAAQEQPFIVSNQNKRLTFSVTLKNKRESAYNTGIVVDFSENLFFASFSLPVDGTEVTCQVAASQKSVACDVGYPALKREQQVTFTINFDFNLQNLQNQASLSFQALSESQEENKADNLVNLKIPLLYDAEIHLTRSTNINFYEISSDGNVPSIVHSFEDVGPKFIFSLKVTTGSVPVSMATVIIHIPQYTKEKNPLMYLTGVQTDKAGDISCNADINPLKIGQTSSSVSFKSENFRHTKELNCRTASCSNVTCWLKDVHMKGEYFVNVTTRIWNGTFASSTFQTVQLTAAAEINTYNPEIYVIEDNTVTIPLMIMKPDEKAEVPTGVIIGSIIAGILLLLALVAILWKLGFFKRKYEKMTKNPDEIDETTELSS
T1 sequence (P08684 whole entry): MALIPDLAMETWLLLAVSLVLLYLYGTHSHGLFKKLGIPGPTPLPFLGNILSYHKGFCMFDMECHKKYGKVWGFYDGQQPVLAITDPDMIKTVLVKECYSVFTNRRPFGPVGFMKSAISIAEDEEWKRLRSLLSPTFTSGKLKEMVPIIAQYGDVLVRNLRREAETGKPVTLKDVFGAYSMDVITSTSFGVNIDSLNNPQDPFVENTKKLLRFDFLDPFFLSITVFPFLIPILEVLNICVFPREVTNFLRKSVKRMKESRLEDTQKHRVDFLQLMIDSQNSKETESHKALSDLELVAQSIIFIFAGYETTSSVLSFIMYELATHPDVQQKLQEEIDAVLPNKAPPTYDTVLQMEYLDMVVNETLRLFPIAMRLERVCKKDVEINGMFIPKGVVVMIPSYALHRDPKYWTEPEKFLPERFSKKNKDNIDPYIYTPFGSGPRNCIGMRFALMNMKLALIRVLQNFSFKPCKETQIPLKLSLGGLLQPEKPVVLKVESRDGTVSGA
Integrin alpha-5/beta-1, sequence (P05556 21-798 limits assumed): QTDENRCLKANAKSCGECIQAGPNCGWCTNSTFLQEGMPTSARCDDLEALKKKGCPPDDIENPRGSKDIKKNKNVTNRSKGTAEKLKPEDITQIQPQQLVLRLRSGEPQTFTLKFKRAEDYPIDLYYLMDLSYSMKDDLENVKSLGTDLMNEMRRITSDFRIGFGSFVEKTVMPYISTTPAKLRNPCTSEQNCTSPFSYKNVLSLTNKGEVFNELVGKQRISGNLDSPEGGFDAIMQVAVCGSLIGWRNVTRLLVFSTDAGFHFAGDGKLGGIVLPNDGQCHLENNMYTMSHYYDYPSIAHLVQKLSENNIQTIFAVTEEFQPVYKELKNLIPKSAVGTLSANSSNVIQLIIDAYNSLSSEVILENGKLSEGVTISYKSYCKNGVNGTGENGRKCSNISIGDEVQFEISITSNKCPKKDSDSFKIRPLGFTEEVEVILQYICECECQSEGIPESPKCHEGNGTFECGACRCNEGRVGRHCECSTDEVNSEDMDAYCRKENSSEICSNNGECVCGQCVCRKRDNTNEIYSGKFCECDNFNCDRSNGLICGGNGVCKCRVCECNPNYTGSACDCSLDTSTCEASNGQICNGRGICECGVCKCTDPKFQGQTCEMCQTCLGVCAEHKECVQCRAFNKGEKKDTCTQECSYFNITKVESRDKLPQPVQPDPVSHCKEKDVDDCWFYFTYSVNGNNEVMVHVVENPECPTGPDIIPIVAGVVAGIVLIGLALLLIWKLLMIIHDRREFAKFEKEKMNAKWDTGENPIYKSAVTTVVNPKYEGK
Integrin alpha-5/beta-1, sequence (P08648 42-894 limits assumed): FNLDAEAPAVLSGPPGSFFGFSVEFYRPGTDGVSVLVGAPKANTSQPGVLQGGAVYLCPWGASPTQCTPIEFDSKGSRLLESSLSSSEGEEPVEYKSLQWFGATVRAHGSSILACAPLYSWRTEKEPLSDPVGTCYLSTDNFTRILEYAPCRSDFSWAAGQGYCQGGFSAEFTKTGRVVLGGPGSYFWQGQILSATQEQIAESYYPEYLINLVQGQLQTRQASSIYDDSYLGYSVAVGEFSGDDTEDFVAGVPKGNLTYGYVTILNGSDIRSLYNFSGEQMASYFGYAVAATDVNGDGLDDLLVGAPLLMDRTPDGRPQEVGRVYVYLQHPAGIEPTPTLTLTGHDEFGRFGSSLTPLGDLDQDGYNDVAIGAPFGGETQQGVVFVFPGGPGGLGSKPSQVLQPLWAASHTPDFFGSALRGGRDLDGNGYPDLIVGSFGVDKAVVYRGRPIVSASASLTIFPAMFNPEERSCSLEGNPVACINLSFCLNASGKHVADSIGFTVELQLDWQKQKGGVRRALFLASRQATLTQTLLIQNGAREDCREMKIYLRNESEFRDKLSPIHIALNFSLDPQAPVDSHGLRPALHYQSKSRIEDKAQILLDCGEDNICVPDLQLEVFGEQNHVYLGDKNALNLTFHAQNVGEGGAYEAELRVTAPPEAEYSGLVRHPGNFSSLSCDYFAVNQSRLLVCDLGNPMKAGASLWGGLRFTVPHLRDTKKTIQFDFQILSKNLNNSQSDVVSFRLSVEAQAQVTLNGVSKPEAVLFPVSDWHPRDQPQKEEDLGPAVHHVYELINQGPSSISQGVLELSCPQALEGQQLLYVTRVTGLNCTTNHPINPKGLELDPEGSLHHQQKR
Integrin alpha-5/beta-1, sequence (P08648 895-1049 limits assumed): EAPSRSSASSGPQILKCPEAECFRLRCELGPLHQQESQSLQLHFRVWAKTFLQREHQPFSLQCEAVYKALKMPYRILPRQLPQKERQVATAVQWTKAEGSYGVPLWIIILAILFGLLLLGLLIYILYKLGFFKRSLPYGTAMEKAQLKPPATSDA

CCOC(=O)[C@@H]1Cc2cn(cn2)C/C=C/COc2ccc(Cl)c(c2)C(=O)N1
Papp [1]: > 2 ×10⁻⁶ cm/s

COC(=O)[C@@H]1Cc2cn(cn2)C/C=C/COc2ccc(Cl)c(c2)C(=O)N1
Papp [1]: > 2 ×10⁻⁶ cm/s

O=C1N[C@H](C(=O)O)Cc2cccc(c2)OC/C=C/COc2ccc1c(Cl)c2
IC50 (Integrin alpha2/beta1): 163 nM

O=C1N[C@H](C(=O)O)Cc2cccc(c2)OCCCCOc2ccc1c(Cl)c2
IC50 (Integrin alpha2/beta1): 114 nM

O=C1N[C@H](C(=O)O)Cc2cccc(c2)OC/C=C/COc2ccc(Cl)c1c2
IC50 (Integrin alpha2/beta1): 233 nM

O=C1N[C@H](C(=O)O)Cc2cccc(c2)OCCCCOc2ccc(Cl)c1c2
IC50 (Integrin alpha2/beta1): 142 nM

O=C1N[C@H](C(=O)O)Cc2cccc(c2)OC/C=C/COc2cccc(Cl)c21
IC50 (Integrin alpha2/beta1): 588 nM

O=C1N[C@H](C(=O)O)Cc2cccc(c2)OCCCCOc2cccc(Cl)c21
IC50 (Integrin alpha2/beta1): 978 nM

O=C1N[C@H](C(=O)O)Cc2ccc(cc2)OC/C=C/COc2cccc(Cl)c21
IC50 (Integrin alpha2/beta1): 178 nM

O=C1N[C@H](C(=O)O)Cc2ccc(cc2)OCCCCOc2cccc(Cl)c21
IC50 (Integrin alpha2/beta1): 106 nM

O=C1N[C@H](C(=O)O)Cc2ccc(cc2)OC/C=C/COc2ccc(Cl)c1c2
IC50 (Integrin alpha2/beta1): 101 nM

O=C1N[C@H](C(=O)O)Cc2ccc(cc2)OCCCCOc2ccc(Cl)c1c2
IC50 (Integrin alpha2/beta1): 731 nM

O=C1N[C@H](C(=O)O)Cc2cccc(c2)OCCCCOc2cccc1c2
IC50 (Integrin alpha2/beta1): > 10000 nM

Cc1ccc2cc1C(=O)N[C@H](C(=O)O)Cc1cccc(c1)OCCCCO2
IC50 (Integrin alpha2/beta1): 745 nM

Cc1ccc2cc1C(=O)N[C@H](C(=O)O)Cc1cccc(c1)OC/C=C/CO2
IC50 (Integrin alpha2/beta1): 1050 nM

O=C1N[C@H](C(=O)O)Cc2cccc(c2)OC/C=C/COc2ccc1c(F)c2
IC50 (Integrin alpha2/beta1): > 1000 nM

O=C1N[C@H](C(=O)O)Cc2cccc(c2)OCCCCOc2ccc1c(F)c2
IC50 (Integrin alpha2/beta1): > 4000 nM

O=C1N[C@H](C(=O)O)Cc2cccc(c2)OC/C=C/COc2cccc(F)c21
IC50 (Integrin alpha2/beta1): > 1000 nM

O=C1N[C@H](C(=O)O)Cc2cccc(c2)OCCCCOc2cccc(F)c21
IC50 (Integrin alpha2/beta1): > 1000 nM

COc1cccc2c1C(=O)N[C@H](C(=O)O)Cc1cccc(c1)OCCCCO2
IC50 (Integrin alpha2/beta1): > 4000 nM

O=C1N[C@H](C(=O)O)Cc2cccc(c2)OC/C=C/COc2ccc([N+](=O)[O-])c1c2
IC50 (Integrin alpha2/beta1): 667 nM

O=C1N[C@H](C(=O)O)Cc2cccc(c2)OC/C=C/COc2cc(C(F)(F)F)c1cn2
IC50 (Integrin alpha2/beta1): 1900 nM

O=C1N[C@H](C(=O)O)Cc2cccc(n2)NC/C=C/COc2ccc(Cl)c1c2
IC50 (Integrin alpha2/beta1): > 1000 nM

O=C1N[C@H](C(=O)O)Cc2cccc(n2)NCCCCOc2ccc(Cl)c1c2
IC50 (Integrin alpha2/beta1): > 1000 nM

O=C1N[C@H](C(=O)O)Cc2ccc(nc2)OC/C=C/COc2ccc(Cl)c1c2
IC50 (Integrin alpha2/beta1): 134 nM

O=C1N[C@H](C(=O)O)Cc2ccc(nc2)OCCCCOc2ccc(Cl)c1c2
IC50 (Integrin alpha2/beta1): 792 nM

O=C1N[C@H](C(=O)O)Cc2cn(c3ccccc23)C/C=C/COc2ccc(Cl)c1c2
IC50 (Integrin alpha2/beta1): 12 nM

O=C1N[C@H](C(=O)O)Cn2cc(nn2)CCCCOc2ccc(Cl)c1c2
IC50 (Integrin alpha2/beta1): 1300 nM

O=C1N[C@H](C(=O)O)Cc2cn(nn2)C/C=C/COc2ccc(Cl)c1c2
IC50 (Integrin alpha2/beta1): 34 nM

O=C1N[C@H](C(=O)O)Cc2cn(nn2)CCCCOc2ccc(Cl)c1c2
IC50 (Integrin alpha2/beta1): 497 nM

Cl.O=C1N[C@H](C(=O)O)Cc2cn(cn2)C/C=C/COc2ccc(Cl)c1c2
Papp [1]: 0.1 ×10⁻⁶ cm/s
metabolised at 20 min, 5 µM [2]: 0%
IC50 (Integrin alpha2/beta1): 4 nM
IC50 (Cytochrome P450 3A4 [3]): > 30000 nM
logD [4]: 0.05
IC50 (Integrin alpha-5/beta-1): 74 nM
solubility [5]: 1540 µg/mL
dose excreted at 24 h [6]: 24%
C0 [7]: 1700 ng/mL
Stability (Plasma [8]): Stable
concentration at 1 h [9]: < 10 ng/mL
metabolised at 20 min, 5 µM [10]: 3%
half-life [11]: 14.4 min
IC50 [12]: > 10000 nM
Vd [13]: 3.6 L/kg
Activity (Cytochrome P450 3A4 [14]): < 10%
dose excreted at 2 h [15]: 50%
Activity (Cytochrome P450 1A2): < 10%
IC50 [16]: 33 nM
Stability (Plasma [17]): Stable
Stability (Plasma [18]): Stable
metabolised at 20 min, 5 µM [19]: 0%
Activity (Cytochrome P450 1A1): < 10%

O=C1N[C@H](C(=O)O)Cc2cn(cn2)CCCCOc2ccc(Cl)c1c2
IC50 (Integrin alpha2/beta1): 366 nM

O=C1N[C@@H](C(=O)O)Cc2cn(cn2)C/C=C/COc2ccc(Cl)c1c2
IC50 (Integrin alpha2/beta1): 909 nM

O=C1N[C@@H](C(=O)O)Cc2cn(cn2)CCCCOc2ccc(Cl)c1c2
IC50 (Integrin alpha2/beta1): > 4000 nM

O=C1N[C@H](C(=O)O)Cc2cn(cn2)C/C=C/COc2ccc(Cl)c1c2Cl
IC50 (Integrin alpha2/beta1): 869 nM

O=C1N[C@H](C(=O)O)Cc2cn(cn2)C/C=C/COc2ccc(Cl)c1n2
IC50 (Integrin alpha2/beta1): 36 nM

O=C1N[C@H](C(=O)O)Cc2ncn(c2Cl)C/C=C/COc2ccc(Cl)c1c2
IC50 (Integrin alpha2/beta1): > 4000 nM

O=C1N[C@H](C(=O)O)Cc2cn(cn2)CCCCCOc2ccc(Cl)c1c2
IC50 (Integrin alpha2/beta1): 731 nM

O=C1N[C@H](C(=O)O)Cc2cn(cn2)C/C=C/Cc2ccc(Cl)c1c2
IC50 (Integrin alpha2/beta1): 176 nM

Cc1cccc(Cl)c1C(=O)N[C@@H](Cc1ccc(NC(=O)c2c(Cl)cccc2Cl)cc1)C(=O)O
IC50 (Integrin alpha2/beta1): 214 nM

O=C1N[C@H](C(=O)O)Cn2cc(nn2)C/C=C/COc2ccc(Cl)c1c2 (mixture of isomers)
IC50 (Integrin alpha2/beta1): 38 nM

O=C1N[C@H](C(=O)O)Cc2cn(cn2)C/C=C/COc2ccc1c(Cl)c2 (mixture of isomers)
IC50 (Integrin alpha2/beta1): 470 nM

O=C1N[C@H](C(=O)O)Cc2cn(cn2)CC/C=C/COc2ccc(Cl)c1c2 (mixture of isomers)
IC50 (Integrin alpha2/beta1): 270 nM

O=C1NC(C(=O)O)Cc2ccccc2OCCCCOc2ccc(Cl)c1c2 (racemic)
IC50 (Integrin alpha2/beta1): > 4000 nM

O=C1NC(C(=O)O)CCc2cn(cn2)C/C=C/COc2ccc(Cl)c1c2 (racemic)
IC50 (Integrin alpha2/beta1): > 5000 nM

O=C1NC(C(=O)O)CCc2cn(cn2)CCCCOc2ccc(Cl)c1c2 (racemic)
IC50 (Integrin alpha2/beta1): > 5000 nM
